How the values were obtained:
[1] = Single dose pharmacokinetic study (oral gavage), plasma and brain LC-MS/MS; type: in vivo, C57BL/J6 mice
Protocol: 5-week-old C57BL/J6 mice (n=5 mice/group, Taconic Farms, Germantown, N.Y.) were administered vehicle (water) or AdDNJ (30, 100 or 300 mg/kg) via oral gavage every day for 14 days. On day 15 mice were euthanized and brain/plasma collected for analysis. For single dose PK studies, 5-week-old C57BL/J6 mice (n=5 mice/group, Taconic Farms, Germantown, N.Y.) received a single 100 mg/kg dose (oral gavage) of AdDNJ and groups euthanized at 0.5, 1, 2, 4, 8, 16, 24 and 48 hours post dose for brain and plasma analysis. Whole brain tissue (10-15 mg) was homogenized in 1 mL of pH 5 lysis buffer for measuring beta-hexosaminidase activity as described above. AdDNJ levels were measured in plasma and brain samples using LC-MS/MS.

Aβ [2] = assay: Aβ assay (ELISA of monomeric Aβ, dot blot of oligomers) in brain; type: in vivo, Dutch APP^E693Q transgenic mice; details: 3-month treatment, any dose tested
Protocol: (§1) The generation and characterization of Dutch APPE693Q mice transgenic mice is described in Gandy, S., et al. Days to criterion as an indicator of toxicity associated with human Alzheimer amyloid-beta oligomers. Annals of neurology 68, 220-230 (2010). 3-month-old male Dutch APP^E693Q mice transgenic mice were orally gavaged 5 days/week with either vehicle (water) (n=15) or 3, 10, 30 or 100 mg/kg AdDNJ for 3 months (n=13). All animal studies were approved and conducted in accordance with the Institutional Animal Care and Usage Committee. Mice were kept in a pathogen-free environment, on a 12-hour light/dark cycle and given ad libitum access to food and water. At 6 month of age treatment groups, and a 3-month-old untreated baseline group (n=15), were cognitively assessed in the NOR, EPM and FC tests. 48 hours following the final dose mice were perfused with ice-cold 1×PBS. The brain was removed and dissected into two hemispheres. One half was snap-frozen on dry ice and stored at −80° C. for biochemistry; the other half was post-fixed in 4% paraformaldehyde then sagittally sectioned on a vibratome into 30 μm sections and stored at 4° C. in storage buffer until histological analyses.
Right hemibrains were processed via differential detergent solubilizationin accordance with Kawarabayashi, T., et al. Age-dependent changes in brain, CSF, and plasma amyloid (beta) protein in the Tg2576 transgenic mouse model of Alzheimer's disease. J Neurosci 21, 372-381 (2001). For analysis of native oligomeric Aβ protein structure, 2-4 μL native protein samples from TBS-soluble were spotted onto activated/pre-wetted PVDF membrane (0.22 μm; Millipore) and allowed to dry. Following protein spotting, membranes were blocked for 1 h at room temperature in 5% w/v non-fat milk (Santa Cruz) in TBS containing 0.1% v/v Tween-20 (Fisher Scientific; TBS-T). Membranes were then incubated in the indicated primary antibody (in 5% milk/TBS-T) overnight at 4 C, washed 4× in TBS-T, incubated in species-specific HRP-conjugated secondary antibody (in 5% milk/TBS-T) for 1 h at room temperature, and then washed 4× in TBS-T. Membranes were subsequently developed with ECL Western blotting substrate (Pierce) using the Fujifilm LAS-3000 developer. Membranes were then washed 1× in TBS-T and stripped in low pH stripping buffer [25 mM Glycine HCl, pH 2.0 and 1% w/v SDS] with vigorous shaking to remove primary and secondary antibody, washed 3× in TBS-T, and blocked for 1 h (in 5% milk/TBS-T) at room temperature before probing with the next primary antibody. Integrated density of immunoreactive spots was measured using MultiGauge Software (FujiFilm) and normalized to % control (vehicle). Generation, purification, and characterization of rabbit pAβ A11 (anti-prefibrillar oligomers, 0.5 μg/ml), rabbit pAβ OC (anti-fibrillar oligomers and fibrils; 0.25 μg/ml) and mouse mAβ Nu-4 (anti-oligomers; 1 μg/ml) have been described previously (Tomic, J. L., Pensalfini, A., Head, E. & Glabe, C. G. Soluble fibrillar oligomer levels are elevated in Alzheimer's disease brain and correlate with cognitive dysfunction. Neurobiology of disease 35, 352-358 (2009); Lambert, M. P., et al. Monoclonal antibodies that target pathological assemblies of Abeta. Journal of neurochemistry 100, 23-35 (2007)). […] To quantify monomeric Aβ levels, human/rat Aβ 1-40/1-42 ELISA kits (Wako) were used according to the manufacturer's instructions. […]

Aβ [3] = assay: Aβ immunohistochemistry (mAb 6E10); type: in vivo, Dutch APP^E693Q transgenic mice; details: 100 mg/kg, 3 months
Protocol: as §1
Aβ was assessed via free-floating immunohistochemistry using mAb 6E10 (1:1000, Covance) as previously described20. GAβ was assessed via free-floating immunohistochemistry using mouse anti-GAβ, clone 4396C (1:100), a gift from Dr. Katsuhiko Yanagisawa as previously described19. Images were captured on an Olympus BX61 upright microscope with an attached Olympus DP71 camera. Integrated density of GAβ staining was measured using Image J (National Institute of Health, Bethesda, Md.).

## CC(=O)NC1CNC(CO)[C@@H](O)C1O (stereo partly drawn) [AdDNJ, 2-acetamido-1,2-dideoxynojirimycin]
[1]; qualitative statement
  bioavailability: good bioavailability
[1]; single 100 mg/kg dose
  AdDNJ level reached in brain: > 342 nM
[1]; single 100 mg/kg oral gavage
  blood brain barrier penetration: crossed the BBB
  time for brain level to drop below Ki for β-hex at pH 5 (253 nM): ≤ 16 hours
Aβ [2]
  Aβ40 level: no change
  Aβ42/40 ratio: no change
  Aβ42 level: no change
  Aβ oligomer levels: no change
  prefibrillar Aβ: no change
Aβ [3]
  Aβ accumulation, CA1 region of the hippocampus: no differences were observed
  Aβ accumulation, subiculum: qualitative region-specific reduction of Aβ accumulation
  Aβ accumulation, visual cortex: no differences were observed

Source: US9675627B2, “Dosing regimens for treating and/or preventing cerebral amyloidoses” (Amicus Therapeutics, Inc., priority 2014, dated 2017)
